Laboratory results reported in article PMC12527922, “Cocaine chemogenetics blunts drug-seeking by synthetic physiology” (Nature, 2025).

What was measured:
[1] = system: DAT; conditions: endogenous target; cited from earlier work
[2] = system: multiple nAChR subtypes; conditions: cited from earlier work
[3] = molecular target: α7–GlyR mutant chimeric channels (Homo sapiens, UniProt P36544, L131K); assay: Membrane potential assay screen, mutant α7–GlyR chimeric channels; type: cell-based; conditions: EC50 at α7 GlyR L131K, sheet 1d
Chain of α7–GlyR mutant chimeric channels (P36544 23-229 L131K): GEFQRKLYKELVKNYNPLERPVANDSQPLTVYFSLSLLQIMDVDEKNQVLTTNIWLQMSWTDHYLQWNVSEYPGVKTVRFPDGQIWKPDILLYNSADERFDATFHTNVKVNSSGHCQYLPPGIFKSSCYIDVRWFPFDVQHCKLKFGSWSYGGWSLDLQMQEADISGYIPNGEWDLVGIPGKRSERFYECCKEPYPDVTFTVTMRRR
Chain of α7–GlyR mutant chimeric channels (P23415 248-457 partner): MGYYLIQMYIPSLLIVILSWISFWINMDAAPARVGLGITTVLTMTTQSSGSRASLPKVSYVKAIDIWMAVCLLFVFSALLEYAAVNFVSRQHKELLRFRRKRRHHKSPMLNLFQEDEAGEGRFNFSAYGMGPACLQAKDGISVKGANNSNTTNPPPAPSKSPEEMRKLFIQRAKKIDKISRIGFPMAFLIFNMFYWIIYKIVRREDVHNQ

COC(=O)[C@H]1[C@@H](OC(=O)c2ccccc2)C[C@@H]2CC[C@H]1N2C [cocaine]
range of cocaine affinities for DAT [1]: 0.23 to 2.0 µM
activity at nAChR subtypes [2]: low-affinity antagonist
EC50 ([3]; Avg): > 30 µM
EC50 ([3]; single determinations): > 30 µM
